Measurements published in US9157102B2, “Over-expression of NADH-dependent oxidoreductase (fucO) for increasing furfural or 5-hydroxymethylfurfural tolerance” (UNIVERSITY OF FLORIDA RESEARCH FOUNDATION, INCORPORATED, priority 2011, dated 2015).
≈ marks a conversion by molar mass, not a printed value. Like-named read-outs stand apart in the source and are kept apart here.

Experiments:
[1] = target: T1, FucO (Escherichia coli, UniProt P0A9S1); experiment: NADH-/NADPH-dependent furan reduction by purified his-tagged FucO; assay type: biochemical; details: for NADPH-dependent reductase activity: purified enzyme, NADPH as cofactor
T1 construct: The FucO coding region was cloned into pET15b to produce pLOI4322; made in house; host or cells: E. coli BL21(λDE3) carrying pLOI4322
T1 sequence (P0A9S1 1-382): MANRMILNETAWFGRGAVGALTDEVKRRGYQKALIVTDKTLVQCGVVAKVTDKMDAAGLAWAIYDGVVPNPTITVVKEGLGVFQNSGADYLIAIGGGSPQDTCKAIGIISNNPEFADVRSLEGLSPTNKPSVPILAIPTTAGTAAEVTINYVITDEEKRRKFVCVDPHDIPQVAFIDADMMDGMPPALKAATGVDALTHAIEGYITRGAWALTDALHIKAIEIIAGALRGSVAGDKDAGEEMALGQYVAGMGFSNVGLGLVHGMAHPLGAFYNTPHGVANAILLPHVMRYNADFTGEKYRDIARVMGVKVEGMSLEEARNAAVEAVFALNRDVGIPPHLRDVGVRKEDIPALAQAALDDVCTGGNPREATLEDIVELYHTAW
Procedure: (§1) Cultures were grown overnight to a cell density of approximately 0.66 mg dew ml^−1 (37° C.) in closed tubes containing 20 ml AM1 (50 g liter^−1 xylose, 0.1 mM IPTG and 12.5 mg liter^−1 ampicillin). Cells were harvested by centrifugation (7,000 g for 5 min, 4° C.), washed twice with 10 ml of cold sodium phosphate buffer (50 mM pH 7.0), resuspended to a cell density of 4.4 mg dew ml^−1, and disrupted in buffer containing 1 mM dithiothreitol using a Fastprep-24 (MP Biomedicals, Solon, Ohio). After clarification at 13,000 g (10 min, 4° C.), protein concentration was determined using a BCA™ Protein Assay Kit (Thermo Scientific, Rockford, Ill.). Furfural-dependent reduction was measured using NADH and NADPH by monitoring the decrease in absorbance at 340 nm (extinction coefficient of NADH of 6,220 M^−1 cm^−1; extinction coefficient of NADPH of […]). Reaction mixtures contained 200 mM phosphate buffer (pH 7.0), 10 mM furfural, and 0.2 mM NADH or NADPH. NADH-dependent and NADPH-dependent reduction of 5-HMF (10 mM) was measured in a similar fashion.
(§2) For the purification of his-tagged FucO, BL21(pLOI4322) was grown in Luria broth at 37° C. When the culture density reached 0.35 g dew liter^−1, IPTG (0.1 mM) was added to induce overexpression. After incubation for 4 h, cells were harvested (7,000 g for 5 min, 4° C.), washed once with 10 mM Tris-HCl (pH 7.1), and lysed using a French pressure cell. After clarification at 30,000 g (1 h, 4° C.), crude extracts were passed through a 0.22 μm polyvinylidene fluoride (PVDF) filter, and further purified using a 1-ml HiTrap™ nickel column (GE Healthcare, Piscataway, N.J.). Purified enzyme was dialyzed in 100 mM phosphate buffer using a Thermo Slide-A-Lyzer and quantified using the BCA™ Protein Assay Kit (Thermo Scientific, Rockford, Ill.).

[2] = target: YqhD (Escherichia coli, UniProt Q46856); details: cited from earlier work
[3] = system: LY180(pTrc99A); experiment: Furfural toxicity in tube cultures, vector control; assay type: cell-based; details: Escherichia coli, 48 h, read-out: minimum inhibitory concentration
Procedure: (§3) Furfural toxicity was measured in tube cultures (13 mm by 100 mm) containing 4 ml of AM1 medium with 50 g xylose, 12.5 mg liter^−1 ampicillin, furfural, and other supplements as indicated (28, 29). Cultures were inoculated to an initial density of […] (0.1 mM) was included for fucO induction. Cell mass was measured at 550 nm after incubation for 48 h (37° C.).

[4] = system: LY180(pLOI4319); experiment: Furfural toxicity in tube cultures, IPTG-induced fucO; assay type: cell-based; details: Escherichia coli; AM1 medium, xylose, 48 h, 37° C., 0.1 mM IPTG-induced fucO; read-out: minimum inhibitory concentration
Procedure: as §3

[5] = target: T1, FucO; details: native substrate, reference (6); cited from earlier work
[6] = substrate: O=Cc1ccc(CO)o1; experiment: NADH-/NADPH-dependent furan reduction by purified his-tagged FucO; assay type: biochemical, Escherichia coli; details: other: substrate of purified his-tagged FucO, NADH-specific reduction; 37.0 °C
Procedure: as §1, §2

[7] = substrate: O=Cc1ccco1; experiment: as above; assay type: biochemical, Escherichia coli; details: other: substrate of purified his-tagged FucO, NADH-specific reduction; 37.0 °C
Procedure: as §1, §2

Chain of YqhD (Q46856 whole entry): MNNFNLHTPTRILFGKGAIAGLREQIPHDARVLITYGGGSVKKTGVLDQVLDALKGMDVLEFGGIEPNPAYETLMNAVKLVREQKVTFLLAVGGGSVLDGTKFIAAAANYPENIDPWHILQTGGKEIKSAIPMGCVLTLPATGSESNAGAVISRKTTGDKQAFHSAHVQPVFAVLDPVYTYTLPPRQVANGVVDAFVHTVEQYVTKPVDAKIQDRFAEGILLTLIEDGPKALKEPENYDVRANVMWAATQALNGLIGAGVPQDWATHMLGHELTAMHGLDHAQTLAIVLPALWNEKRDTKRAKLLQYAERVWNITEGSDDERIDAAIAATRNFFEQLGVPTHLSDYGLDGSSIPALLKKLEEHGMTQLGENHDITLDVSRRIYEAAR

**Q.** Which NADPH-dependent reductase activity [1] does the source give for O=Cc1ccc(CO)o1 [5-HMF, 5-hydroxymethylfurfural] here?
**A.** No NADPH-dependent furfural or 5-HMF reductase activity

**Q.** With NC(=O)C1=CN([C@@H]2O[C@H](COP(=O)(O)OP(=O)(O)OC[C@H]3O[C@@H](n4cnc5c(N)ncnc54)[C@H](OP(=O)(O)O)[C@@H]3O)[C@@H](O)[C@H]2O)C=CC1 [NADPH] as the molecule, how does the Km ([2]; read-out: Km for NADPH) read?
**A.** 0.008 mM

**Q.** For O=Cc1ccco1 [furfural], which MIC [3] is on record?
**A.** 10 mM (≈ 961 µg/mL)

**Q.** And the “Vmax relative to that for L-lactaldehyde” value ([1]; FucO)?
**A.** 10%

**Q.** And the NADPH-dependent reductase activity [1]?
**A.** No NADPH-dependent furfural or 5-HMF reductase activity

**Q.** What about the Km ([2]; reference (29), read-out: Km for furfural) of the same molecule?
**A.** 9 mM

**Q.** What about the MIC [4] of the same molecule?
**A.** 15 mM (≈ 1440 µg/mL)

**Q.** Which results are given for C[C@H](O)C=O [L-lactaldehyde]?
**A.** Km [5]: 0.035 mM; Vmax [5]: 20 μmol min^−1 mg protein^−1

B1: FucO (Escherichia coli K-12) (protein)
chain: MANRMILNETAWFGRGAVGALTDEVKRRGYQKALIVTDKTLVQCGVVAKVTDKMDAAGLAWAIYDGVVPNPTITVVKEGLGVFQNSGADYLIAIGGGSPQDTCKAIGIISNNPEFADVRSLEGLSPTNKPSVPILAIPTTAGTAAEVTINYVITDEEKRRKFVCVDPHDIPQVAFIDADMMDGMPPALKAATGVDALTHAIEGYITRGAWALTDALHIKAIEIIAGALRGSVAGDKDAGEEMALGQYVAGMGFSNVGLGLVHGMAHPLGAFYNTPHGVANAILLPHVMRYNADFTGEKYRDIARVMGVKVEGMSLEEARNAAVEAVFALNRDVGIPPHLRDVGVRKEDIPALAQAALDDVCTGGNPREATLEDIVELYHTAW
notes: The FucO coding region was cloned into pET15b to produce pLOI4322; made in house; host or cells: E. coli BL21(λDE3) carrying pLOI4322
**Q.** For B1, which Km [6] is on record?
**A.** 0.7 ± 0.3 mM

**Q.** And the Vmax [6]?
**A.** 0.30±0.05 mmol min^−1 mg protein^−1

**Q.** And the Km [7]?
**A.** 0.4 ± 0.2 mM

**Q.** And the Vmax [7]?
**A.** 1.9±0.4 mmol min^−1 mg protein^−1
